# Key:
# NIH3T3 cells = assay: Intracellular NAD+ levels in control and Slc12a8-OE NIH3T3 cells; assay type: cell-based, mouse; settings: Slc12a8-OE cells, additional 1-hr incubation with 100 μM NMN after inhibitor cocktail
# Description: NAD+ and NMN measurements by HPLC.
# [1] = Jejunum NAD+ levels 60 min after oral gavage of NMN; assay type: in vivo, mouse; settings: 60 min after oral gavage (500 mg/kg), Slc12a8-knockdown mice compared to control mice
# Description: In vivo Slc12a8 knockdown experiment. To generate shRNA-expressing lentiviral constructs, 56-bp double-stranded oligonucleotides, each of which contains a sense target sequence, a microRNA-based loop sequence ([…]; SEQ ID NO: 4), an antisense sequence, a termination sequence of four thymidines, and appropriate restriction enzyme sites at both ends, were generated for mouse Slc12a8 and firefly luciferase (fLuc) and cloned into the U6-PGK-GFP vector provided by the Viral Vectors Core at Washington University School of Medicine. The sense Slc12a8 sequence is ‘5-[…]-3’ (SEQ ID NO: 5). Lentiviruses were produced as previously described (Satoh, A. et al., Cell Metab., 18, 416-430, 2013). Knockdown efficiency was tested using primary intestinal cultures (Sato, T. & Clevers, H., Methods Mol. Biol. 945, 319-328, 2013). Large-scale lentivirus production was carried on by the Viral Vectors Core at the Hope Center for Neurological Disorders at Washington University. […]
# Lentiviruses carrying control firefly luciferase (fLuc) shRNA and Slc12a8 shRNA were generated as described supra. […] Slc12a8 protein expression levels in control shfLuc lentivirus- and shSlc12a8 lentivirus-infected jejunum and ileum samples were measured through Western blots (FIG. 17). […] Then NAD+ levels were measured by HPLC in these samples (analyzed by ANOVA with Tukey's test).
# Slc12a8 mRNA expression = Slc12a8 mRNA expression by quantitative RT-PCR in cells and ex vivo small intestine explants; assay type: cell-based, mouse; settings: FK866 plus NMN; primary hepatocytes, NIH3T3 fibroblasts (24 h), jejunum and ileum explants (4 h)
# Description: Cell culture and ex vivo small intestine explant culture. […] For Slc12a8 mRNA expression analysis, 2.5×10^5 cells per well were incubated in 6-well plates with DMEM with 1% FBS containing 0.1% DMSO or 100 nM FK866 or 100 nM FK866 plus 100 μM NMN for 24 h. Small intestines from 3-month old B6 male mice were cut into three segments with duodenum/jejunum/ileum length ratios of 1:3:2 (Wang, H. H., et al., Hepatology 45, 998-1006, 2007). […] Cellular and tissue RNA samples were analyzed by quantitative RT-PCR, as described previously (Stein, L. R. & Imai, S., EMBO J., 33, 1321-1340, 2014).
# The amounts of adenosine produced were determined by HPLC. […] Silencing efficiencies were evaluated by quantitative RT-PCR.
# FIG. 2 illustrates that Slc12a8 is highly expressed in the small intestine and pancreas and moderately in the liver and white adipose tissue of B6 male mice at 3 months of age (n=3 mice). […] Cells were treated with these compounds for 24 h (n=4 mice for hepatocytes treated with DMSO and FK866, and n=3 mice for hepatocytes treated with FK866 and NMN; n=6 for NIH3T3 cells; analyzed using ANOVA with Tukey's test). FIG. 5 illustrates surface and intracellular Slc12a8 protein expression levels were measured by flow cytometry analysis in NIH3T3 cells treated with FK866 or FK866 plus NMN for 48h. […]
# [2] = tested on: various types of primary cells; settings: NMN co-administered with FK866, compared to NMN in the absence of FK866; cited from earlier work
compound,measurement,setting,value
"NC(=O)c1ccc[n+]([C@@H]2O[C@H](COP(=O)([O-])O)[C@@H](O)[C@H]2O)c1 [NMN, nicotinamide mononucleotide]",intracellular NAD+ levels,NIH3T3 cells,restore NAD+ levels to the original levels
same,NAD+ levels in the jejunum,[1],significantly decreased
same,Slc12a8 expression induced by FK866,Slc12a8 mRNA expression,suppressed
same,NAD+ increase,[2],higher NAD+ increases

# From patent US12337010B2, “Compositions and methods of treatment using nicotinamide mononucleotide” (Washington University, priority 2017, dated 2025)
